Test in all cases: Dundee protein kinase screen
Holding throughout (format): biochemical

Assay [1] has as its target RIPK2 (Homo sapiens, UniProt O43353). Particulars: RIPK2, 1µM; read-out: %Remaining activity at 1µM NU6300. The method, then: (§1) Prior to determining its cellular activity, we carried out a screen to assess its selectivity against a panel of 131 protein kinases under conditions that would not distinguish between a reversible or irreversible mode of action. […] These 13 kinases and 29 additional kinases, selected for their known sensitivity to other inhibitors within the purine series, were then tested in a modified screening format in which the assay was repeated following a 4-hr pre-incubation (Table S3B). […] However, conformational flexibility around the active site may promote such an interaction with a residue from another part of the structure ([Martin et al., 2012]).
(§2) Table S3, Related to Figure 4. NCL-0006300 protein kinase selectivity. (A) NU6300 was tested at a single concentration of 1µM against 131 protein kinases present in a Dundee protein kinase screen (Bain et al., 2007). Values given are % activity remaining and are the average of duplicate measurements: 0-25% (red), 26-50% (yellow), 51-80% (black) and above 81% (green). The kinase domain sequences (as defined by UniProt) of […]
(§3) have a lysine residue at a position close to CDK2 Lys88 or Lys89. However, in the structure of tyrosine-protein kinase BTK (PDB ID: 3GEN) the residue equivalent to CDK2 Asp86 is Cys481 and therefore there is the potential for a covalent adduct to be formed through this side chain. Ephrin type-B receptor 3 (UniProt entry P54753) also encodes a cysteine residue (Cys717) that by sequence alignment would be predicted to be close to the CDK2 lysine pair. (B) Selected kinases were re-tested in the Dundee kinase screen against NU6300 at a single concentration of 0.5 µM both in the standard assay format and following a 4 hour pre-incubation in the presence of NU6300. Kinases which have very low activity after the 4 hour incubation so that results might not be wholly reliable are boxed in salmon. Kinases where the activity after a 4 hour pre-incubation is < 50% that in the standard assay format are highlighted in red.

The target of assay [2] is S6K1 (Homo sapiens, UniProt P23443). To be noted: S6K1, 1µM; read-out: %Remaining activity at 1µM NU6300. Here is the method:
as §1, §2, §3

For assay [3], the target named is PKA (Homo sapiens, UniProt P17612). To be noted: read-out: %Remaining activity at 1µM NU6300. The method, then:
as §1, §2, §3

For assay [4], the target named is FGF-R1 (Homo sapiens, UniProt P11362). Particulars: FGF-R1, 1µM; read-out: %Remaining activity at 1µM NU6300. Here is the method:
as §1, §2, §3

In assay [5] the target is p38α MAPK (Homo sapiens, UniProt Q16539). Particulars: read-out: %Remaining activity at 1µM NU6300. Here is the method:
as §1, §2, §3

Assay [6] concerns the target VEG-FR1 (Homo sapiens, UniProt P17948). To be noted: VEG-FR1, 1µM; read-out: %Remaining activity at 1µM NU6300. The method, then: as §1, §2, §3
Assay [7] concerns the target MINK1 (Homo sapiens, UniProt Q8N4C8). To be noted: MINK1, 1µM; read-out: %Remaining activity at 1µM NU6300. Here is the method:
as §1, §2, §3

The target of assay [8] is BRSK1 (Homo sapiens, UniProt Q8TDC3). To be noted: BRSK1, 1µM; read-out: %Remaining activity at 1µM NU6300. Here is the method: as §1, §2, §3
Assay [9] concerns the target MEKK1 (Homo sapiens, UniProt Q13233). To be noted: MEKK1, 1µM; read-out: %Remaining activity at 1µM NU6300. The method, then:
as §1, §2, §3

In assay [10] the target is MNK1 (Homo sapiens, UniProt Q9BUB5). To be noted: MNK1, 1µM; read-out: %Remaining activity at 1µM NU6300. The method, then: as §1, §2, §3
MNK1, sequence (Q9BUB5 whole entry): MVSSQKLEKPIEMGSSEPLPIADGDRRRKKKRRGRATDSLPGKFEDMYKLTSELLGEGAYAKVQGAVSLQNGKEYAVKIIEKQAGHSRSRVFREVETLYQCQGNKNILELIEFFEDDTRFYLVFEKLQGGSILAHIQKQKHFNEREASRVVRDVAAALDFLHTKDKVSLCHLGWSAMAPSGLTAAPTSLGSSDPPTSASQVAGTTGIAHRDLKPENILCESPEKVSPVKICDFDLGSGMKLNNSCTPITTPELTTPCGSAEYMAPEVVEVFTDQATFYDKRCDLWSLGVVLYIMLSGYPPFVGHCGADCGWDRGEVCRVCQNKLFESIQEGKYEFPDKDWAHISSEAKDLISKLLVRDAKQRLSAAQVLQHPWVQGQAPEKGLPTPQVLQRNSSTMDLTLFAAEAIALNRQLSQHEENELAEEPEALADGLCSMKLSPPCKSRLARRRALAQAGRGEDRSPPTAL
In assay [11] the target is MLK3 (Homo sapiens, UniProt Q16584). Particulars: MLK3, 1µM; read-out: %Remaining activity at 1µM NU6300. Here is the method:
as §1, §2, §3

In assay [12] the target is T1, ERK8 (Homo sapiens, UniProt Q8TD08).
T1 sequence (Q8TD08 1-544): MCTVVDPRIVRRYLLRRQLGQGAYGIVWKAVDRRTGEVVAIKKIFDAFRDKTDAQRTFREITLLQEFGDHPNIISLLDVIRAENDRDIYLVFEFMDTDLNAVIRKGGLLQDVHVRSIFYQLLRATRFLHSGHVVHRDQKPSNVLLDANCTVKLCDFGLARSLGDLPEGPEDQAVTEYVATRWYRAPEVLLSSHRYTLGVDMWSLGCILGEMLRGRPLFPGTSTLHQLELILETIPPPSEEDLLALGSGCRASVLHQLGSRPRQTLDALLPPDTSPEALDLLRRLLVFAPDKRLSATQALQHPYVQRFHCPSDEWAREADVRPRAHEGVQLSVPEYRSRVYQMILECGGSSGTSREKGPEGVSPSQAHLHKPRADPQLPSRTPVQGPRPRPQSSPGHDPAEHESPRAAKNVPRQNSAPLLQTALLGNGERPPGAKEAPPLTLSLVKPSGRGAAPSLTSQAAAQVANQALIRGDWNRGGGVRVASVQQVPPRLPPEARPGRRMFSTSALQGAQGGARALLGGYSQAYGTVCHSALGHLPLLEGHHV
To be noted: ERK8, 1µM; read-out: %Remaining activity at 1µM NU6300. Here is the method:
as §1, §2, §3

Assay [13] addresses T2, TSSK1 (Homo sapiens, UniProt Q9BXA7).
T2 sequence (Q9BXA7 1-367): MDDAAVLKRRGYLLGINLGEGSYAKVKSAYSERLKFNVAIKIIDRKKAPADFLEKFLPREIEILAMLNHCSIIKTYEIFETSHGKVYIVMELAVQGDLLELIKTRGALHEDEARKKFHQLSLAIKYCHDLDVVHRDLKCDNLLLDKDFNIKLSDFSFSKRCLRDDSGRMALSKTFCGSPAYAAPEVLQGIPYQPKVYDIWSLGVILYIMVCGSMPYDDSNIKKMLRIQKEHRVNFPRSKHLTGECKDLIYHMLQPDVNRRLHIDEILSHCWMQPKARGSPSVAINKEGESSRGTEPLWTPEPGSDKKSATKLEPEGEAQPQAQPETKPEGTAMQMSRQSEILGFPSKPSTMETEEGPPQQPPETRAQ
To be noted: TSSK1, 1µM; read-out: %Remaining activity at 1µM NU6300. The method, then: as §1, §2, §3

In assay [14] the target is MARK3 (Homo sapiens, UniProt P27448). To be noted: MARK3, 1µM; read-out: %Remaining activity at 1µM NU6300. The method, then:
as §1, §2, §3

Usually remaining activity stands for the signal under treatment as a percentage of the control signal.

VEG-FR1, sequence (P17948 27-1338): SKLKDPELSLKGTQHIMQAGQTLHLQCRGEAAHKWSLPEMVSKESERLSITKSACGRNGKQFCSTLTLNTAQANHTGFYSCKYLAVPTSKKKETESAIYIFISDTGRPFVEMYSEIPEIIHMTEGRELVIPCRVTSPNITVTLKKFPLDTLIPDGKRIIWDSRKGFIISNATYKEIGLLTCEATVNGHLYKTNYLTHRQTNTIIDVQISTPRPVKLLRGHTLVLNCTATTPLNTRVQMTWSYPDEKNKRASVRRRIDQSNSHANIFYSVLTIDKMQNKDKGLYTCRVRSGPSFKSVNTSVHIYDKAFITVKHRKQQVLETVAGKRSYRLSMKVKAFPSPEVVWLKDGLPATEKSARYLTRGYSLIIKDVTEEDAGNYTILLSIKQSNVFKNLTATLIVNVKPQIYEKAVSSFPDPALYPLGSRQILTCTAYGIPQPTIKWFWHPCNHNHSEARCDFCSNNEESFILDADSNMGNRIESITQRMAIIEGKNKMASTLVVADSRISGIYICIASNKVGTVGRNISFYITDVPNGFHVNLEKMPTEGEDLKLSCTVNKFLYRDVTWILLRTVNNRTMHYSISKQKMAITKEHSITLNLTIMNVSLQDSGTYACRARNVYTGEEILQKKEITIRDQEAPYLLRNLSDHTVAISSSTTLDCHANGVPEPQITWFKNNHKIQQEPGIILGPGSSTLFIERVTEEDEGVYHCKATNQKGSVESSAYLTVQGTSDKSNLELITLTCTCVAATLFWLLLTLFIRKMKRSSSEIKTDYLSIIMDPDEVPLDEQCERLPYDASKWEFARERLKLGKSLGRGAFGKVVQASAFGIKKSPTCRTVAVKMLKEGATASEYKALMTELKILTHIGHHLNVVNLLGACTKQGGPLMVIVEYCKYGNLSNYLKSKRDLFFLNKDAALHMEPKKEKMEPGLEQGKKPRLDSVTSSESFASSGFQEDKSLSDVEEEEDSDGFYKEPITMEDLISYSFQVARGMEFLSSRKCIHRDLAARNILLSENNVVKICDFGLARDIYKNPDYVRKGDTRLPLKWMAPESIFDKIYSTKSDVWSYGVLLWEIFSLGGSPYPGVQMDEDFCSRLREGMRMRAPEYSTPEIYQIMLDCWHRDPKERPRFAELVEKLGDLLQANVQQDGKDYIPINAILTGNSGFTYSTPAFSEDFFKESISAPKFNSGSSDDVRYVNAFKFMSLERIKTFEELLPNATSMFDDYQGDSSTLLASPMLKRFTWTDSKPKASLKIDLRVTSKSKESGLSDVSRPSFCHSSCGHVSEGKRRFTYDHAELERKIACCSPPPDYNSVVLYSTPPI
S6K1, sequence (P23443 whole entry): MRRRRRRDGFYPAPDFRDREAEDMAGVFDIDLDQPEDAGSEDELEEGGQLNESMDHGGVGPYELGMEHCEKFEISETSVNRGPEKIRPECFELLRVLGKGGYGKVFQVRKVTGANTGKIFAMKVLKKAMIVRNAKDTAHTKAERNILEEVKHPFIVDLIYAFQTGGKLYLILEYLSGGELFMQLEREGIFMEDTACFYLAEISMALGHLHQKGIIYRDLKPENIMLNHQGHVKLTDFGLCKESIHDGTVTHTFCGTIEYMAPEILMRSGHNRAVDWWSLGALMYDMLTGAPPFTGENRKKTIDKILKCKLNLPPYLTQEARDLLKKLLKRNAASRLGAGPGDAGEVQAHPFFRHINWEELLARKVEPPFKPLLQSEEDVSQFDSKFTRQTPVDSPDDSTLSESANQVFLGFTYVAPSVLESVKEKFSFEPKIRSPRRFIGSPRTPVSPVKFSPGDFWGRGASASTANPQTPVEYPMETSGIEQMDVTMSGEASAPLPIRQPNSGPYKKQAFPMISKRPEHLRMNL
MEKK1, sequence (Q13233 whole entry): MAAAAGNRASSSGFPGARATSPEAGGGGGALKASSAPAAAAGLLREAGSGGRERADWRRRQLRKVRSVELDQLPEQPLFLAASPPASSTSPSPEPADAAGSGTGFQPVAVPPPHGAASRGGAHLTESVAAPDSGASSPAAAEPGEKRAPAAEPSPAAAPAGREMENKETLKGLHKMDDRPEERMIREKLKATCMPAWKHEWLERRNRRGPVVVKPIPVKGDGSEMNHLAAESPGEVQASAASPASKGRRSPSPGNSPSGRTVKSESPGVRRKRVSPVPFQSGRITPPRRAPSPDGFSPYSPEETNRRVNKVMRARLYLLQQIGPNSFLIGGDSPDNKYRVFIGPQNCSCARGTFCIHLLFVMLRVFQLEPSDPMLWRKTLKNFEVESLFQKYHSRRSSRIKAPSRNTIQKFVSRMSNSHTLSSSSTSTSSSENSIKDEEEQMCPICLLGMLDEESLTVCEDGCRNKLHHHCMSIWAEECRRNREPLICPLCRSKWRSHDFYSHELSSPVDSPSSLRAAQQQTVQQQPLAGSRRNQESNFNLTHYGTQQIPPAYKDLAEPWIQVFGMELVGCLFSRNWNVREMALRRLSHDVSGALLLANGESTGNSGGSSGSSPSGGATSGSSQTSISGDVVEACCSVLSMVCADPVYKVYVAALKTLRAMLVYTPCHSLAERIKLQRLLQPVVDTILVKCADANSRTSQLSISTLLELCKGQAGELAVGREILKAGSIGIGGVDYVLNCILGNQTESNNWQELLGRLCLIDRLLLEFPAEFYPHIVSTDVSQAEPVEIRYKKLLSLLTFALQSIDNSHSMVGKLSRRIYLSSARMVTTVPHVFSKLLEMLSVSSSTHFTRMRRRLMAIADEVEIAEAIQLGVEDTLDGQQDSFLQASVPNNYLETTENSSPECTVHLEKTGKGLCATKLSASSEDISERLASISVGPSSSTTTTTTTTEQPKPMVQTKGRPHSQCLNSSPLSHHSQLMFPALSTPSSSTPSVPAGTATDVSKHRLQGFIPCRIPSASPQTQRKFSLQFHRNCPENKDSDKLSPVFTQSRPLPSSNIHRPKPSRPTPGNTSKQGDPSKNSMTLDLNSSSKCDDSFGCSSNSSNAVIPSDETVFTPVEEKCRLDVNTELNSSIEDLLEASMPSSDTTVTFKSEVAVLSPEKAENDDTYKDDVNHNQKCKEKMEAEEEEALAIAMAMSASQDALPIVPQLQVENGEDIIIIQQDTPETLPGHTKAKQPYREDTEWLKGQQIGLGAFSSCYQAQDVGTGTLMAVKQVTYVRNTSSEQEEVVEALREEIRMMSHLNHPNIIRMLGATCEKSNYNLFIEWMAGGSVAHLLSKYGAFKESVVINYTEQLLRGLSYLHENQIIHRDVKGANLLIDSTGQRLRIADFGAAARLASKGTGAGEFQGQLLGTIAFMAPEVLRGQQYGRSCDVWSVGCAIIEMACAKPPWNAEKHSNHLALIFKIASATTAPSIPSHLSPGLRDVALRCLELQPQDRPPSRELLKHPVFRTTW
FGF-R1, sequence (P11362 22-822): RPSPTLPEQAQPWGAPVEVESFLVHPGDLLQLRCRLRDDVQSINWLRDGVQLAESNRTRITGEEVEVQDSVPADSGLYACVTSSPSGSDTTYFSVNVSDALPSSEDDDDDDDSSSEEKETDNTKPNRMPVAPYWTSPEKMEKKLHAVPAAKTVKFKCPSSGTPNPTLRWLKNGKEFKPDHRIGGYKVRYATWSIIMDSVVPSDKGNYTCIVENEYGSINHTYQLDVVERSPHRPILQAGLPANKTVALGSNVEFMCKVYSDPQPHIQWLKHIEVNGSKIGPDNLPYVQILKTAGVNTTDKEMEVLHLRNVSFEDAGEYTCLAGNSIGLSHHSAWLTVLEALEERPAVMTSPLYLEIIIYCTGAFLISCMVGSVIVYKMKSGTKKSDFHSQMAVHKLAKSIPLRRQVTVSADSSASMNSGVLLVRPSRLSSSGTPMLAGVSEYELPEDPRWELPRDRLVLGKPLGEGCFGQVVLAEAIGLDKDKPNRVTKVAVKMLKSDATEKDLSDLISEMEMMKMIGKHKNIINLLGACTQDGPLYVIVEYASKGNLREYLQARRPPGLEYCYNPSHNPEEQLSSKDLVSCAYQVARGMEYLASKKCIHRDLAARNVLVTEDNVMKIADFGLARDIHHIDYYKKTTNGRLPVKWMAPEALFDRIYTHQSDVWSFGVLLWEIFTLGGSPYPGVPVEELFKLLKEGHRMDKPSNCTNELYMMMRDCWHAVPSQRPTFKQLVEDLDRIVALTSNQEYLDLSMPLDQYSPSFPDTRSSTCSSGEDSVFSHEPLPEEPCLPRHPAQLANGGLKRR
p38α MAPK, sequence (Q16539 whole entry): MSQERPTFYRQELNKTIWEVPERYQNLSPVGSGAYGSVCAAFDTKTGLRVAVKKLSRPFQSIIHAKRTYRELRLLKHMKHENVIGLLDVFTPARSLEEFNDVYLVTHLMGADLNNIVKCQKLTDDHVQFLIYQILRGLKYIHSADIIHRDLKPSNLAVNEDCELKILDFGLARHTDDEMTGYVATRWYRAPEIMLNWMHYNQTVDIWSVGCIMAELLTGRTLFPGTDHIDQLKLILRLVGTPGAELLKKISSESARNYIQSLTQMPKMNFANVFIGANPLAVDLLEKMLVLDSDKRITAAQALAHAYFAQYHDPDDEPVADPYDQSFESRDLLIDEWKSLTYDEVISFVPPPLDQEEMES

Regarding `C=CS(=O)(=O)c1ccc(Nc2nc(OCC3CCCCC3)c3nc[nH]c3n2)cc1` [NU6300, 6-(cyclohexylmethoxy)-N-(4-(vinylsulfonyl)phenyl)-9H-purin-2-amine], the remaining activity at 1 µM turned out to be 86% in assay [1]; 82% in assay [2]; 88% in assay [3]; 62% in assay [4]; 81% in assay [5]; 14% in assay [6]. Moreover, the remaining activity at 1 µM in assay [7] is 69%; in [8], 79%; in assay [9], 89%; in [10] it was 102%; in [11], 16%; in assay [12], 24%. In addition, the remaining activity at 1 µM in [13] was found to be 26%; in assay [14], 71%.

For the origin of these results see PMC4579270, “Identification and Characterization of an Irreversible Inhibitor of CDK2” (Chemistry & Biology, 2015).
